# Where two headings read alike, the source gives them in different places.
# Key:
# [1] = Pharmacokinetic assessments (plasma concentrations, erdafitinib exposure; CYP2C9*3/*3 genotype); type: in vivo, human; settings: subjects with the CYP2C9*3/*3 genotype; 'may increase'
# Source text: Therefore, increased adverse reactions are monitored in subjects who are known or suspected to have CYP2C9*3/*3 genotype.
# [2] = 144 treated BPC subjects (safety analysis set)
# [3] = Broad Panel Cohort, 178 treated subjects, % of subjects, AE outcome of Fatal
structure (smiles),measurement,setting,value
"COc1cc(OC)cc(N(CCNC(C)C)c2ccc3ncc(-c4cnn(C)c4)nc3c2)c1 [erdafitinib, N-(3,5-dimethoxy-phenyl)-N′-(1-methylethyl)-N-[3-(1-methyl-1H-pyrazol-4-yl)quinoxalin-6-yl]ethane-1,2-diamine]",TEAEs leading to death,"13 patients, BPC n=178, IA3",7.3%
same,Drug-related serious TEAEs,[2],6.3%
same,diarrhea (TEAE),[2],54.2%
same,drug related TEAEs leading to death,[2],no drug related TEAEs leading to death
same,drug-related TEAEs leading to discontinuation,[2],3.5%
same,hyperphosphatemia (TEAE),[2],65.3%
same,stomatitis (TEAE),[2],49.3%
same,TEAEs leading to death,[3],13 (7.3%)
same,TEAEs leading to death: Drug-related,[3],1 (0.6%)
same,increase of exposure of erdafitinib,[1],50%
